From US9296697B2, “Hetaryl-substituted guanidine compounds and use thereof as binding partners for 5-HT5-receptors” (Abbott Laboratories, priority 2005, dated 2016)

What follows are compounds tested against T1, h5-HT5A receptor (Homo sapiens, UniProt P47898) (assay: h5-HT5A [3H]5-CT binding assay). Conditions: affinity for 5-HT5A; membranes of HEK293 cells expressing the h5-HT5A receptor gene, 2.5 nM [3H]5-CT.
T1 construct: expressed in transfected cells; membranes used
Protocol: h5-HT5A [^3H]5-CT Binding Assay
Membranes of HEK293 cells which permanently express the h5-HT5A receptor gene were incubated in 100 mM tris-HCl buffer (pH 7.7) containing 1 mM EDTA, in the presence of 2.5 nM [^3H]5-CT (total volume 600 μL). The total binding is defined as the binding that is observed when the membranes are incubated in the presence of only the radioligand. The inhibition induced by the compound is determined by incubation of cell membranes in the presence of the radioligand and various concentrations of the compound of interest. Nonspecific binding is defined as the [^3H]5-CT binding obtained by incubation of the membranes, the same as for the total binding, but in the presence of 10 μM methiothepine. Following incubation for 75 min at 30° C., the membrane suspension was filtered through a GF/B-Filter coated with 0.03% PEI, using a Skatron® harvesting system. The residual radioactivity in the filter was quantified by liquid scintillation counting.
Various concentrations of the test substances were used in both assays, and the Ki or IC50 values were determined.

T1 sequence (P47898 whole entry): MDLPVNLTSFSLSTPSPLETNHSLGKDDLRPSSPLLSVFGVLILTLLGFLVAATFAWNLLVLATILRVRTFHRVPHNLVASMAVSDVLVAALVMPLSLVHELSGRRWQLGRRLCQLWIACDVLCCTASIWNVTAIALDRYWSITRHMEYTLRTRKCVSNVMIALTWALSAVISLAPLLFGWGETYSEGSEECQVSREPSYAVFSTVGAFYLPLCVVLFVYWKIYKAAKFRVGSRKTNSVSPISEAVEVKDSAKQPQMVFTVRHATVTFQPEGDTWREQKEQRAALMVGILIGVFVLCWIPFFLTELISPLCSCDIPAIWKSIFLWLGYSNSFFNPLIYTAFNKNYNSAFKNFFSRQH

Compound	Ki [nM]
COc1ccccc1CNC(=N)Nc1cccc(C#N)n1 [Example 52, N-(6-Cyanopyridin-2-yl)-N′-(2-methoxybenzyl)guanidine acetate]	< 100
COc1cccc(OC)c1CNC(=N)Nc1cccc(-c2ccccc2)n1 [Example 53, N-(2,6-Dimethoxybenzyl)-N′-(6-phenylpyridin-2-yl)guanidine acetate]	< 100
COc1cccc(OC)c1CNC(=N)Nc1cccc(-c2ccc(F)cc2)n1 [Example 54, N-(2,6-Dimethoxybenzyl)-N′-[6-(4-fluorophenyl)pyridin-2-yl]guanidine]	< 100
COc1cccc(OC)c1CNC(=N)Nc1cccc(C#N)n1 [Example 55, N-(6-Cyanopyridin-2-yl)-N′-(2,6-dimethoxybenzyl)guanidine acetate]	< 100
COc1cccc(OC)c1CNC(=N)Nc1cc(-c2ccccc2)ccn1 [Example 56, N-(2,6-Dimethoxybenzyl)-N′-(4-phenylpyridin-2-yl)guanidine diacetate]	< 100
COc1cccc(OC)c1CNC(=N)Nc1cc(-c2ccc(F)cc2)ccn1 [Example 57, N-(2,6-Dimethoxybenzyl)-N′-[4-(4-fluorophenyl)pyridin-2-yl]guanidine acetate]	< 100
COc1ccccc1CNC(=N)Nc1cc(-c2ccccc2)ccn1 [Example 58, N-(2-Methoxybenzyl)-N′-(4-phenylpyridin-2-yl)guanidine acetate]	< 100
COc1ccccc1CNC(=N)Nc1cc(-c2ccc(F)cc2)ccn1 [Example 59, N-[4-(4-Fluorophenyl)pyridin-2-yl]-N′-(2-methoxybenzyl)guanidine acetate]	< 300
COc1cccc(OC)c1CNC(=N)Nc1ncccc1-c1ccccc1 [Example 60, N-(2,6-Dimethoxybenzyl)-N′-(3-phenylpyridin-2-yl)guanidine acetate]	< 300
COc1cccc(OC)c1CNC(=N)Nc1ncccc1-c1ccc(F)cc1 [Example 61, N-(2,6-Dimethoxybenzyl)-N′-(3-(4-fluorophenyl)pyridin-2-yl)guanidine acetate]	< 300
COc1ccccc1CNC(=N)Nc1ncccc1-c1ccccc1 [Example 62, N-(2-Methoxybenzyl)-N′-(3-phenylpyridin-2-yl)guanidine acetate]	< 100
COc1ccccc1CNC(=N)Nc1ncccc1-c1ccc(F)cc1 [Example 63, N-[3-(4-Fluorophenyl)pyridin-2-yl]-N′-(2-methoxybenzyl)guanidine acetate]	< 10000
COc1cccc(OC)c1CNC(=N)Nc1cc(C#N)ccn1 [Example 64, N-(4-Cyanopyridin-2-yl)-N′-(2,6-dimethoxybenzyl)guanidine acetate]	< 100
COc1cccc(OC)c1CNC(=N)Nc1ncccc1C#N [Example 65, N-(3-Cyanopyridin-2-yl)-N′-(2,6-dimethoxybenzyl)guanidine acetate]	< 10000
COc1ccccc1CNC(=N)Nc1cc(C#N)ccn1 [Example 66, N-(4-Cyanopyridin-2-yl)-N′-(2-methoxybenzyl)guanidine acetate]	< 100
COc1ccccc1CNC(=N)Nc1ccc(Cc2ccccc2)cn1 [Example 67, N-(5-Benzylpyridin-2-yl)-N′-(2-methoxybenzyl)guanidine acetate]	< 100
COc1cccc(OC)c1CNC(=N)Nc1ccc(Cc2ccccc2)cn1 [Example 68, N-(5-Benzylpyridin-2-yl)-N′-(2,6-dimethoxybenzyl)guanidine acetate]	< 100
COc1ccccc1CNC(=N)Nc1cccc(Cc2ccccc2)n1 [Example 69, N-(6-Benzylpyridin-2-yl)-N′-(2-methoxybenzyl)guanidine acetate]	< 100
COc1cccc(OC)c1CNC(=N)Nc1cccc(Cc2ccccc2)n1 [Example 70, N-(6-Benzylpyridin-2-yl)-N′-(2,6-dimethoxybenzyl)guanidine acetate]	< 100
COc1cccc(C)c1CNC(=N)Nc1cccc(Br)n1 [Example 71, N-(6-Bromopyridin-2-yl)-N′-(2-methoxy-6-methylbenzyl)guanidine]	< 100
COc1cccc(F)c1CNC(=N)Nc1cccc(Br)n1 [Example 72, N-(6-Bromopyridin-2-yl)-N′-(2-fluoro-6-methoxybenzyl)guanidine]	< 100
N=C(NCc1ccccc1OC(F)(F)F)Nc1cccc(Br)n1 [Example 73, N-(6-Bromopyridin-2-yl)-N′-[2-(trifluoromethoxy)benzyl]guanidine]	< 100
CC(C)Oc1ccccc1CNC(=N)Nc1cccc(Br)n1 [Example 74, N-(6-Bromopyridin-2-yl)-N′-(2-isopropoxybenzyl)guanidine]	< 100
CCOc1ccccc1CNC(=N)Nc1cccc(Br)n1 [Example 75, N-(6-Bromopyridin-2-yl)-N′-(2-ethoxybenzyl)guanidine acetate]	< 100

Compound	Ki [nM]
COc1cccc(C)c1CNC(=N)Nc1cccc(C#N)n1 [Example 76, N-(2-Methoxy-6-methylbenzyl)-N′-(6-cyanopyridin-2-yl)guanidine acetate]	< 100
COc1cccc(F)c1CNC(=N)Nc1cccc(C#N)n1 [Example 77, N-(6-Cyanopyridin-2-yl)-N′-(2-fluoro-6-methoxybenzyl)guanidine acetate]	< 100
COc1cccc(Cl)c1CNC(=N)Nc1cccc(C#N)n1 [Example 78, N-(2-Chloro-6-methoxybenzyl)-N′-(6-cyanopyridin-2-yl)guanidine acetate]	< 100
N#Cc1cccc(NC(=N)NCc2ccccc2OC(F)(F)F)n1 [Example 79, N-(6-Cyanopyridin-2-yl)-N′-[2-(trifluoromethoxy)benzyl]guanidine acetate]	< 100
CC(C)Oc1ccccc1CNC(=N)Nc1cccc(C#N)n1 [Example 80, N-(6-Cyanopyridin-2-yl)-N′-(2-isopropoxybenzyl)guanidine acetate]	< 100
CCOc1ccccc1CNC(=N)Nc1cccc(C#N)n1 [Example 81, N-(6-Cyanopyridin-2-yl)-N′-(2-ethoxybenzyl)guanidine acetate]	< 100
N#Cc1cccc(NC(=N)NCc2c(Cl)cccc2Oc2ccccc2)n1 [Example 82, N-(2-Chloro-6-phenoxybenzyl)-N′-(6-cyanopyridin-2-yl)guanidine acetate]	< 100
COc1cccc(OC)c1CNC(=N)Nc1ccc(-c2ccccc2)cn1 [Example 83, N-(2,6-Dimethoxybenzyl)-N′-(5-phenylpyridin-2-yl) guanidine acetate]	< 100
COc1cccc(OC)c1CNC(=N)Nc1ccc(-c2ccc(F)cc2)cn1 [Example 84, N-(2,6-Dimethoxybenzyl)-N′-[5-(4-fluorophenyl)pyridin-2-yl]guanidine acetate]	< 100
COc1cccc(OC)c1CNC(=N)Nc1ccc(C#N)cn1 [Example 85, N-(5-Cyanopyridin-2-yl)-N′-(2,6-dimethoxybenzyl)guanidine acetate]	< 100
COc1ccccc1CNC(=N)Nc1ccc(-c2ccccc2)cn1 [Example 86, N-(2-Methoxybenzyl)-N′-(5-phenylpyridin-2-yl)guanidine]	< 100
COc1ccccc1CNC(=N)Nc1ccc(-c2cccs2)cn1 [Example 87, N-(2-Methoxybenzyl)-N′-[5-(2-thienyl)pyridin-2-yl]guanidine]	< 100
COc1ccccc1CNC(=N)Nc1ccc(-c2ccc(F)cc2)cn1 [Example 88, N-[5-(4-Fluorophenyl)pyridin-2-yl]-N′-(2-methoxybenzyl)guanidine acetate]	< 100
COc1ccccc1CNC(=N)Nc1ccc(-c2ccc(C(F)(F)F)cc2)cn1 [Example 89, N-(2-Methoxybenzyl)-N′-{5-[4-(trifluoromethyl)phenyl]pyridin-2-yl}guanidine acetate]	< 300
COc1ccccc1CNC(=N)Nc1ccc(C#N)cn1 [Example 90, N-(5-Cyanopyridin-2-yl)-N′-(2-methoxybenzyl)guanidine]	< 100
COc1cccc(Cl)c1CNC(=N)Nc1ccc(I)cn1 [Example 91, N-(2-Chloro-6-methoxybenzyl)-N′-(5-iodopyridin-2-yl)guanidine acetate]	< 100
COc1cccc(F)c1CNC(=N)Nc1ccc(I)cn1 [Example 92, N-(2-Fluoro-6-methoxybenzyl)-N′-(5-iodopyridin-2-yl)guanidine acetate]	< 100
COc1cccc(C)c1CNC(=N)Nc1ccc(I)cn1 [Example 93, N-(5-Iodopyridin-2-yl)-N′-(2-methoxy-6-methylbenzyl)guanidine acetate]	< 100
N=C(NCc1ccccc1Cl)Nc1ccc(I)cn1 [Example 94, N-(2-Chlorobenzyl)-N′-(5-iodopyridin-2-yl)guanidine acetate]	< 300
COc1cccc(Cl)c1CNC(=N)Nc1ccc(C#N)cn1 [Example 95, N-(2-Chloro-6-methoxybenzyl)-N′-(5-cyanopyridin-2-yl)guanidine acetate]	< 100
COc1cccc(F)c1CNC(=N)Nc1ccc(C#N)cn1 [Example 96, N-(5-Cyanopyridin-2-yl)-N′-(2-fluoro-6-methoxybenzyl)guanidine acetate]	< 100
COc1cccc(C)c1CNC(=N)Nc1ccc(C#N)cn1 [Example 97, N-(5-Cyanopyridin-2-yl)-N′-(2-methoxy-6-methylbenzyl)guanidine acetate]	< 100
N#Cc1ccc(NC(=N)NCc2ccccc2Cl)nc1 [Example 98, N-(2-Chlorobenzyl)-N′-(5-cyanopyridin-2-yl)guanidine acetate]	< 300
